Laboratory results published in publication PMC3845904 (Chemical research in toxicology, 2009).
Like-named read-outs stand apart in the source and are kept apart here.

Legend:
human P450 1B1 [1] = target: T1, human P450 1B1 (Homo sapiens, UniProt Q16678); conditions: pH 7.4
T1 sequence (Q16678 1-543): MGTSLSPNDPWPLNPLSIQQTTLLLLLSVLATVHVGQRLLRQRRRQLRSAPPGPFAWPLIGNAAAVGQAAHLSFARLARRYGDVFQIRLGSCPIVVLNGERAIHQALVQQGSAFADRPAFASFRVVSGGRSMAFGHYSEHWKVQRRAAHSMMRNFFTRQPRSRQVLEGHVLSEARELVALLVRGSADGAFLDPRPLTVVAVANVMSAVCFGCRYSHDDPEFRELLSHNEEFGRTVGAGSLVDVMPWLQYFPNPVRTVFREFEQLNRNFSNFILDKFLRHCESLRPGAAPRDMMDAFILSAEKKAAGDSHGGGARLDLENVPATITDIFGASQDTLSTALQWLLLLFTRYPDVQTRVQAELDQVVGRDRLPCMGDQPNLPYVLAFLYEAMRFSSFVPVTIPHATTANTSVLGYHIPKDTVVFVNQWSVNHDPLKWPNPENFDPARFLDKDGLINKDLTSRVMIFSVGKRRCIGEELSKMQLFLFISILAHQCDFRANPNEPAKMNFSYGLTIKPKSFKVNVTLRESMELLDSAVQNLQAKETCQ

human P450 1B1 [2] = target: T1, human P450 1B1
human P450 1B1 [3] = target: T1, human P450 1B1; experiment: biochemical
human P450 1B1 [4] = target: T1, human P450 1B1; experiment: Spectral binding titration; conditions: purified P450 1B1 1.0 μM, ND = not detected at 100 μM
human P450 1B1 [5] = target: T1, human P450 1B1; experiment: Inhibition of 7-ethoxyresorufin O-deethylation; conditions: results not presented

SMILES: CCC#Cc1ccc(-c2ccccc2)cc1 [4BuB, 4-butinylbiphenyl]
- Kd (human P450 1B1 [1]): 54 ± 6.2 µM
- IC50 (human P450 1B1 [2]): 1500 ± 300 nM

SMILES: CC#Cc1ccc(-c2ccccc2)cc1 [4PB, 4-(1-propynyl)biphenyl]
- IC50 (human P450 1B1 [3]): 1800 ± 200 nM
- Reverse Type I spectra ΔAmax/Ks (magnitude of spectral binding) (human P450 1B1 [4]): 0.0062
- Reverse Type I spectra ΔAmax (human P450 1B1 [4]; means ± SEs): 0.074 ± 0.008
- manner of inhibition of P450 1B1 EROD activity (human P450 1B1 [5]): mechanism-based manner
